Assay results as given in patent USRE37781E1, “Substituted cyclic carbonyls and derivatives thereof useful as retroviral protease inhibitors” (DuPont Pharmaceuticals Company, priority 1991, dated 2002).
≈ marks a conversion by molar mass, not a printed value. Where two headings read alike, the source gives them in different places.

Legend:
[1] = test system: HIV-1 (RF) in MT-2 cells; assay: microbe, parasite or virus in culture; type: cell-based; conditions: Table 2d
Outline: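 HIV-1 laboratory strains (RF, MN, IIIB) grown in H9 cells in RPMI 1640 with 5% FCS; infections in MT-2 cells. Viral RNA quantified by hybridization with biotinylated gag/pol capture probes on streptavidin plates and alkaline phosphatase-conjugated reporter probes; BH10 gag-pol in vitro transcripts serve as RNA standards.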

[2] = biological target: single-chain tethered dimer of HIV protease (Human immunodeficiency virus 1, UniProt P04585); assay: biochemical; type: biochemical; design: fused on or other part: A second copy of the same protease unit is joined to the first by a short peptide tether, giving one polypeptide
[3] = Table 2d; HIV protease inhibition, HPLC method; read-out: HPLC K1
[4] = HIV RNA assay, HIV-1 infected MT-2 cells
[5] = HIV protease inhibition, HPLC method; Table 2d; read-out: HPLC K1
[6] = Human immunodeficiency virus 1, MT2, 48 h, HIV RNA assay, HIV-1 infected MT-2 cells, read-out: IC90
[7] = read-out: HPLC K1; HIV protease inhibition, HPLC method; Table 2d
[8] = Human immunodeficiency virus 1, MT2, 48 h, class symbols, read-out: IC90
[9] = read-out: HPLC K1; Table 2d; class symbols

Row | Compound | IC90 ([1]; HIV RNA assay) | Ki [2, 3] | IC90 [1, 4] | Ki [2, 5] | further results
1 | O=C(NCCCCCN1C(=O)N(CCCCCNC(=O)Nc2ccccc2)C(Cc2ccccc2)C(O)C(O)C1Cc1ccccc1)Nc1ccccc1 (stereo not shown) [15ER] | ++/+ (The ++/+ is used in the cases where an IC90 was determined to be >50 μg/mL) | 0.01 to 1 µM |  |  | 
2 | CNC(=O)NCCCCCN1C(=O)N(CCCCCNC(=O)NC)C(Cc2ccccc2)C(O)C(O)C1Cc1ccccc1 (stereo not shown) [15ES] | ++/+ (The ++/+ is used in the cases where an IC90 was determined to be >50 μg/mL) | 0.01 to 1 µM |  |  | 
3 | CC(=O)NCCCCCN1C(=O)N(CCCCCNC(C)=O)C(Cc2ccccc2)C(O)C(O)C1Cc1ccccc1 (stereo not shown) [15ET] | ++/+ (The ++/+ is used in the cases where an IC90 was determined to be >50 μg/mL) | 0.01 to 1 µM |  |  | 
4 | Cl.Cl.O=C(NCCCCCN1C(=O)N(CCCCCNC(=O)OCc2cccnc2)C(Cc2ccccc2)C(O)C(O)C1Cc1ccccc1)OCc1cccnc1 (stereo not shown) [15EU] | +++ (+++=<10 μg/mL) | < 0.01 µM |  |  | 
5 | CNC(=S)NCCCCCN1C(=O)N(CCCCCNC(=S)NC)C(Cc2ccccc2)C(O)C(O)C1Cc1ccccc1 (stereo not shown) [15EV] | ++/+ (The ++/+ is used in the cases where an IC90 was determined to be >50 μg/mL) | 0.01 to 1 µM |  |  | 
6 | O=C1N(CCCCCNC(=S)Nc2ccccc2)C(Cc2ccccc2)C(O)C(O)C(Cc2ccccc2)N1CCCCCNC(=S)Nc1ccccc1 (stereo not shown) [15EW] | ++/+ (The ++/+ is used in the cases where an IC90 was determined to be >50 μg/mL) | 0.01 to 1 µM |  |  | 
7 | O=C(NCCCCCN1C(=O)N(CCCCCNC(=O)c2ccccc2)C(Cc2ccccc2)C(O)C(O)C1Cc1ccccc1)c1ccccc1 (stereo not shown) [15EX] | ++/+ (The ++/+ is used in the cases where an IC90 was determined to be >50 μg/mL) | 0.01 to 1 µM |  |  | 
8 | O=C(NCCCCCN1C(=O)N(CCCCCNC(=O)c2cccc(F)c2)C(Cc2ccccc2)C(O)C(O)C1Cc1ccccc1)c1cccc(F)c1 (stereo not shown) [15EY] |  |  | +++ (+++=<10 μg/mL) | 0.01 to 1 µM | 
9 | CNCC(=O)NCCCCCN1C(=O)N(CCCCCNC(=O)CNC)C(Cc2ccccc2)C(O)C(O)C1Cc1ccccc1.Cl.Cl (stereo not shown) [15EZ] |  |  | ++/+ (The ++/+ is used in the cases where an IC90 was determined to be >50 μg/mL) | 0.01 to 1 µM | 
10 | Cl.Cl.O=C(NCCCCCN1C(=O)N(CCCCCNC(=O)c2ccncc2)C(Cc2ccccc2)C(O)C(O)C1Cc1ccccc1)c1ccncc1 (stereo not shown) [15FA] |  |  | +++ (+++=<10 μg/mL) | 0.01 to 1 µM | 
11 | O=C(NCCCCCN1C(=O)N(CCCCCNC(=O)c2ccccc2F)C(Cc2ccccc2)C(O)C(O)C1Cc1ccccc1)c1ccccc1F (stereo not shown) [15FB] |  |  | +++ (+++=<10 μg/mL) | 0.01 to 1 µM | 
12 | O=C(NCCCCCN1C(=O)N(CCCCCNC(=O)c2ccccc2F)C(Cc2ccccc2)C(O)C(O)C1Cc1ccccc1)c1ccc(F)cc1 (stereo not shown) [15FC] |  |  | ++/+ (The ++/+ is used in the cases where an IC90 was determined to be >50 μg/mL) | 0.01 to 1 µM | 
13 | N#CCCCCN1C(=O)N(CCCCC#N)C(Cc2ccccc2)C(O)C(O)C1Cc1ccccc1 (stereo not shown) [15FD] |  |  |  |  | IC90 [1, 6]: 10 to 100 µg/mL (≈ 20.5 to 205 µM); Ki [2, 7]: 0.01 to 1 µM
14 | Cl.Cl.O=C(CN1CCOCC1)NCCCCCN1C(=O)N(CCCCCNC(=O)CN2CCOCC2)C(Cc2ccccc2)C(O)C(O)C1Cc1ccccc1 (stereo not shown) [15FE] |  |  | ++/+ (The ++/+ is used in the cases where an IC90 was determined to be >50 μg/mL) | 0.01 to 1 µM | 
15 | O=C(NCCCCCN1C(=O)N(CCCCCNC(=O)c2cnccn2)C(Cc2ccccc2)C(O)C(O)C1Cc1ccccc1)c1cnccn1 (stereo not shown) [15FF] |  |  | ++/+ (The ++/+ is used in the cases where an IC90 was determined to be >50 μg/mL) | > 1 µM | 
16 | O=C(NCCCCCN1C(=O)N(CCCCCNC(=O)c2cc(F)cc(F)c2)C(Cc2ccccc2)C(O)C(O)C1Cc1ccccc1)c1cc(F)cc(F)c1 (stereo not shown) [15FG] |  |  | ++/+ (The ++/+ is used in the cases where an IC90 was determined to be >50 μg/mL) | 0.01 to 1 µM | 
17 | CN(C)CCCCN1C(=O)N(CCCCN(C)C)C(Cc2ccccc2)C(O)C(O)C1Cc1ccccc1.Cl.Cl (stereo not shown) [15FH] |  |  | ++/+ (The ++/+ is used in the cases where an IC90 was determined to be >50 μg/mL) | 0.01 to 1 µM | 
18 | NCCCCN1C(=O)N(CCCCN)C(Cc2ccccc2)C(O)C(O)C1Cc1ccccc1 (stereo not shown) [15FI] |  |  |  |  | IC90 [1, 6]: > 50 µg/mL; Ki [2, 7]: > 1 µM
19 | O=C(NCCCCCN1C(=O)N(CCCCCNC(=O)c2cccc(C(F)(F)F)c2)C(Cc2ccccc2)C(O)C(O)C1Cc1ccccc1)c1cccc(C(F)(F)F)c1 (stereo not shown) [15FJ] |  |  | ++/+ (The ++/+ is used in the cases where an IC90 was determined to be >50 μg/mL) | 0.01 to 1 µM | 
20 | Nc1cccc(CN2C(=O)N(CC3CC3)C(Cc3ccccc3)C(O)C(O)C2Cc2ccccc2)c1 (stereo not shown) [15G] |  |  |  |  | IC90 [1, 8]: < 10 µg/mL; Ki [2, 9]: < 0.01 µM
21 | O=C1N(Cc2cccc([N+](=O)[O-])c2)C(Cc2ccccc2)C(O)C(O)C(Cc2ccccc2)N1CC1CC1 (stereo not shown) [15H] |  |  |  |  | IC90 [1, 8]: < 10 µg/mL; Ki [2, 9]: < 0.01 µM
22 | CNc1cccc(CN2C(=O)N(Cc3ccc(CO)cc3)C(Cc3ccccc3)C(O)C(O)C2Cc2ccccc2)c1 (stereo not shown) [15M] |  |  |  |  | IC90 [1, 8]: < 10 µg/mL; Ki [2, 9]: < 0.01 µM
23 | CN(C)CC(=O)Nc1cccc(CN2C(=O)N(Cc3cccc(NC(=O)CN(C)C)c3)C(Cc3ccccc3)C(O)C(O)C2Cc2ccccc2)c1.Cl.Cl (stereo not shown) [15N] |  |  |  |  | IC90 ([1]; class symbols): +++ (+++=<10 μg/mL); Ki ([2]; Table 2d; class symbols; read-out: HPLC K1): < 0.01 µM
